Results on five compounds are retold here after publication PMC6019134, “1,2,6-Thiadiazinones as Novel Narrow Spectrum Calcium/Calmodulin-Dependent Protein Kinase Kinase 2 (CaMKK2) Inhibitors” (Molecules : A Journal of Synthetic Chemistry and Natural …, 2018).

By ΔTm is commonly meant the change in melting temperature against a reference sample.

What all share (assay): DSF thermal shift, kinase panel
What all share (assay type): binding
Holding throughout (details): 10 μM compound

The target of one assay is T1, CAMKK1 (Homo sapiens, UniProt Q8N5S9).
T1 construct: purchased in-house (home-made panel, SGC-style construct names)
The essentials:
(§1)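 Thermal denaturation of 1 µM kinase with 10 µM compound present, monitored by dye fluorescence across 25–95 °C; shift in Tm relative to 0.2% DMSO reference.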

A further assay addresses T2, CDK2 (Homo sapiens, UniProt P24941).
T2 construct: purchased in-house (home-made panel, SGC-style construct names)
The method, boiled down:
as §1

In the next assay the target is T3, CLK1 (Homo sapiens, UniProt P49759).
T3 construct: purchased in-house (home-made panel, SGC-style construct names)
The essentials: as §1

A further assay addresses T4, GSG2A (Homo sapiens, UniProt Q8TF76).
T4 construct: purchased in-house (home-made panel, SGC-style construct names)
T4 sequence (Q8TF76 1-798): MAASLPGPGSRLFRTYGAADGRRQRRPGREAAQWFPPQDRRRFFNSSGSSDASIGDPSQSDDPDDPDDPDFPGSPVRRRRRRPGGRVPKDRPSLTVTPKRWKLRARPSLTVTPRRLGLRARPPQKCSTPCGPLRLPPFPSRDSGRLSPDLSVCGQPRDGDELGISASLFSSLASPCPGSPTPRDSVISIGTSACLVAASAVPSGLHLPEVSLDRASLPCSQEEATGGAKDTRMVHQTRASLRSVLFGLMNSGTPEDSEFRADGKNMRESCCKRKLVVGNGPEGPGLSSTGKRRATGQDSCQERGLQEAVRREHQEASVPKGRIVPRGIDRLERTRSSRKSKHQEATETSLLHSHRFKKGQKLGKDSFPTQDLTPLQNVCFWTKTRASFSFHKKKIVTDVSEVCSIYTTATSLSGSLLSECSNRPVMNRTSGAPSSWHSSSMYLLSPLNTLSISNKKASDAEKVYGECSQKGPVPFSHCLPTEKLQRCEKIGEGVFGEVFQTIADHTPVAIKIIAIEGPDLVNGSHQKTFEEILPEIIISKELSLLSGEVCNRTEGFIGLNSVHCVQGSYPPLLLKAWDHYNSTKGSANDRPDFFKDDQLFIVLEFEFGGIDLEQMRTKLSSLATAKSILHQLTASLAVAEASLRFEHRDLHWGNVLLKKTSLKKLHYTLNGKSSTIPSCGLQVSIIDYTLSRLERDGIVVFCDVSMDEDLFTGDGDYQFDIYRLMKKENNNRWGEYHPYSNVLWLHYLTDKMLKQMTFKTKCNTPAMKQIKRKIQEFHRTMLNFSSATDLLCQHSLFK
The method, boiled down:
as §1

Another assay concerns the target T5, MAPK14B (Homo sapiens, UniProt Q16539).
T5 construct: purchased in-house (home-made panel, SGC-style construct names)
The essentials:
as §1

A further assay concerns the target T6, PKMYT1A (Homo sapiens, UniProt Q99640).
T6 construct: purchased in-house (home-made panel, SGC-style construct names)
T6 sequence (Q99640 1-499): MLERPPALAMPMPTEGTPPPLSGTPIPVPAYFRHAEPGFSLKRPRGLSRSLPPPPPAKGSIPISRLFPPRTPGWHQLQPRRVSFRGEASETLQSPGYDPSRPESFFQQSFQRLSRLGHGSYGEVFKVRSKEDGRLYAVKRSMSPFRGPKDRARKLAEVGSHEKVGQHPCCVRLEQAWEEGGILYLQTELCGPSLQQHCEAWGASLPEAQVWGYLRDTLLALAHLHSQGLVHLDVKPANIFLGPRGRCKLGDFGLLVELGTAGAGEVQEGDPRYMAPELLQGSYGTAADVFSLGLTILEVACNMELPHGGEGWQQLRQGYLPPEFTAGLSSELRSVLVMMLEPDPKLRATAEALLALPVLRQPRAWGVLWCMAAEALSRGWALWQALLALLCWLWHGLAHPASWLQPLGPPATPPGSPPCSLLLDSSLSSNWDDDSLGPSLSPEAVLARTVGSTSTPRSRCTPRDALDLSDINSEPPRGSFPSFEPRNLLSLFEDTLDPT
The essentials:
as §1

The target in a further assay is T7, RPS6KA1A (Homo sapiens, UniProt Q15418).
T7 construct: purchased in-house (home-made panel, SGC-style construct names)
The method, boiled down:
as §1

Another assay addresses T8, SRPK1A (Homo sapiens, UniProt Q96SB4).
T8 construct: purchased in-house (home-made panel, SGC-style construct names)
The essentials: as §1

T5 sequence (Q16539 whole entry): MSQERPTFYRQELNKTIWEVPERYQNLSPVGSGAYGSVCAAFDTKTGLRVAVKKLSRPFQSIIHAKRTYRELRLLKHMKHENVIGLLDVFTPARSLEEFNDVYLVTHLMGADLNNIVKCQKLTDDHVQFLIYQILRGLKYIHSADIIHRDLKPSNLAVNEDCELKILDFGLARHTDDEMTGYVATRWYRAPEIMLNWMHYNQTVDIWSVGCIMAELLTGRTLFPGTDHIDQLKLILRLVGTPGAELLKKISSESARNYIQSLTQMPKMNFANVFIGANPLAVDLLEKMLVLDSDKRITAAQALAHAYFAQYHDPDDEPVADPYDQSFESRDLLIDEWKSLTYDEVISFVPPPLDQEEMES
T7 sequence (Q15418 whole entry): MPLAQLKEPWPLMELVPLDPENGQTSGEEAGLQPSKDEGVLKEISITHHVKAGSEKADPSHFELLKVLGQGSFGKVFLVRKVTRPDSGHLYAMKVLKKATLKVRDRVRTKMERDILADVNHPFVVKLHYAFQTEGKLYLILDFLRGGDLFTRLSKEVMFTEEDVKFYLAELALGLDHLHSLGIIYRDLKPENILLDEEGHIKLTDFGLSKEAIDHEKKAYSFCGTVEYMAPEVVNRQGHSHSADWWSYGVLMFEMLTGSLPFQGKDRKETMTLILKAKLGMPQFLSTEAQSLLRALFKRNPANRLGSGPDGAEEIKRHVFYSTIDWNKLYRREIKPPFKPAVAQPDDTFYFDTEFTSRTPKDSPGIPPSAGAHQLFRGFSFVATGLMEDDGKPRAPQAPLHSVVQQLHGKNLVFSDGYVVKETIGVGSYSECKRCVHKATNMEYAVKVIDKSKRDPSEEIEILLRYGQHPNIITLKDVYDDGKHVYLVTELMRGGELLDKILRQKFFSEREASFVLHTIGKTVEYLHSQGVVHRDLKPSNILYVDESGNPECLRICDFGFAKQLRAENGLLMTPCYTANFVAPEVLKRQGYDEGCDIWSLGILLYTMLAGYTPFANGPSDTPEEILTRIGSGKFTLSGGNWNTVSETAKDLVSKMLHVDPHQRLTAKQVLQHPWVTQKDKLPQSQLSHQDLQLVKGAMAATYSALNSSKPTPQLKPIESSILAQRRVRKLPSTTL
T1 sequence (Q8N5S9 whole entry): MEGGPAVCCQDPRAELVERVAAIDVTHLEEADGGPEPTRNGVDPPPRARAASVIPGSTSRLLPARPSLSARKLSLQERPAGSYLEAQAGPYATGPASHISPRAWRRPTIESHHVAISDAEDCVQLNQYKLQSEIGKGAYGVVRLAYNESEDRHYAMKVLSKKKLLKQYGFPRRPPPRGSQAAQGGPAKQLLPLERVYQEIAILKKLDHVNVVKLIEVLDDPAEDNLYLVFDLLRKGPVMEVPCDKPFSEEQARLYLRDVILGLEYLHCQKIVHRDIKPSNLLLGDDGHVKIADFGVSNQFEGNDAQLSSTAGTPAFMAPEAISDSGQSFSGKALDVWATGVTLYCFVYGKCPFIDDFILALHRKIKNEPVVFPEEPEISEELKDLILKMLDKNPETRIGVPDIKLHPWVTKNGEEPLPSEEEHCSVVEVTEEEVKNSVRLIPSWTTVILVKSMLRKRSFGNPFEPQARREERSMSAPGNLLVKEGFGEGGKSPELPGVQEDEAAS
T8 sequence (Q96SB4 whole entry): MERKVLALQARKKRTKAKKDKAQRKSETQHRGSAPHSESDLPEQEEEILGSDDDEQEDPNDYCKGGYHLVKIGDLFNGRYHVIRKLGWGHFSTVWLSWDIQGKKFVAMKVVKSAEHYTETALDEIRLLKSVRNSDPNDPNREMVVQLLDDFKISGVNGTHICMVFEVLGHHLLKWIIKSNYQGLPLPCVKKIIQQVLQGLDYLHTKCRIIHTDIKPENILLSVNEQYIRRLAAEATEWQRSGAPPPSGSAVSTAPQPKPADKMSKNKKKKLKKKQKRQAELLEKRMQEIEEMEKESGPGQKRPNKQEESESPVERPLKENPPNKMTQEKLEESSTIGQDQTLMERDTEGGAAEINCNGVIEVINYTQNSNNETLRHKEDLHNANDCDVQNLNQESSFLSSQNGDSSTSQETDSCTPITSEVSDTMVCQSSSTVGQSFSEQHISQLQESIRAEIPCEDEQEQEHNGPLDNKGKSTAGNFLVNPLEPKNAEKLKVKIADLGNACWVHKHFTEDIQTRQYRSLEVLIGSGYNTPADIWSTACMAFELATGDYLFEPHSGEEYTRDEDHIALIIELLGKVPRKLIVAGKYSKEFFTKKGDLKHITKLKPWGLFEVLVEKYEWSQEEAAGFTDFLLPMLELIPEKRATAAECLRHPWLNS
T3 sequence (P49759 whole entry): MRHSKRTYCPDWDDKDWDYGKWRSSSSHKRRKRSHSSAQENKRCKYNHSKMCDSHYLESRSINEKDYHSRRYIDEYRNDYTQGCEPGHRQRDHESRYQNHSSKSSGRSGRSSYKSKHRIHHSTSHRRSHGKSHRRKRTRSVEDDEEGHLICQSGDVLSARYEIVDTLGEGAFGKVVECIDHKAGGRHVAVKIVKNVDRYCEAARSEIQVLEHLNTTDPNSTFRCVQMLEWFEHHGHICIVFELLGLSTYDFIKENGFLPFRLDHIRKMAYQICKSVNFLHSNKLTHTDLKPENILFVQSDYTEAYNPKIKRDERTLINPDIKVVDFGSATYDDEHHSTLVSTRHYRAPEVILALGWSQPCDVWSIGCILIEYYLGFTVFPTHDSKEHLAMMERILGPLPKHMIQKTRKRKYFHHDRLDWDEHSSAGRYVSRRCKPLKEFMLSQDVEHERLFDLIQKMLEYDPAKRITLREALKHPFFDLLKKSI

Regarding `CNC(=O)c1ccccc1Nc1nsnc(Nc2cccc(CS(C)(=O)=O)c2)c1=O` [Compound 4, N-Methyl-2-([5-({3-[(methylsulfonyl)methyl]phenyl}amino)-4-oxo-4H-1,2,6-thiadiazin-3-yl]-amino}-benzamide], the ΔTm at 10 µM is -0.4 °C on CAMKK1; 0.2 °C at CDK2; 0 °C on CLK1; 0.4 °C at GSG2A; -0.2 °C at MAPK14B; -0.3 °C at PKMYT1A. Also, the ΔTm at 10 µM is -0.4 °C on RPS6KA1A and 0 °C on SRPK1A.
Regarding `Cc1ccc(Nc2nsnc(Nc3cccc(C(N)=O)c3)c2=O)cc1O` [Compound 1, 3-({5-[(3-Hydroxy-4-methylphenyl)amino]-4-oxo-4H-1,2,6-thiadiazin-3-yl}amino)benzamide], the ΔTm at 10 µM at CAMKK1 came to 0 °C; at CDK2, 0.2 °C; at CLK1, 0.5 °C; at GSG2A, 0.6 °C; at MAPK14B it was 0 °C; on PKMYT1A, 0 °C. The ΔTm at 10 µM was -0.6 °C on RPS6KA1A and 0 °C on SRPK1A.
Take `CNC(=O)c1ccccc1Nc1nsnc(Nc2ccc(N3CCOCC3)cc2)c1=O` [Compound 5, N-Methyl-2-({5-[(4-morpholinophenyl)amino]-4-oxo-4H-1,2,6-thiadiazin-3-yl}amino)benzamide]: the ΔTm at 10 µM at CAMKK1 is -0.4 °C; at CDK2, -0.1 °C; at CLK1, 1 °C; on GSG2A, 0.3 °C; at MAPK14B, -0.3 °C; on PKMYT1A it was -0.8 °C. In addition, the results for the ΔTm at 10 µM on RPS6KA1A and at SRPK1A were -0.4 °C and 0 °C, respectively.
For `Cc1ccc(Nc2nsnc(Nc3ccc4c(c3)CS(=O)(=O)C4)c2=O)cc1O` [Compound 3, 3-[(2,2-Dioxido-1,3-dihydrobenzo[c]thiophen-5-yl)amino]-5-[(3-hydroxy-4-methylphenyl)amino]-4H-1,2,6-thiadiazin-4-one], the thermal shift (ΔTm) at 10 µM on CAMKK1 stood at 1.4 °C; at CDK2, 1.8 °C; at CLK1, 2.1 °C; at GSG2A, 1.2 °C; at MAPK14B, 1 °C; at PKMYT1A, 1.2 °C. The figures for the ΔTm at 10 µM at RPS6KA1A and on SRPK1A were -0.4 °C and 0 °C, respectively.
Consider `Cc1ccc(Nc2nsnc(Nc3ccc(C(N)=O)cc3)c2=O)cc1O` [Compound 2, 4-({5-[(3-Hydroxy-4-methylphenyl)amino]-4-oxo-4H-1,2,6-thiadiazin-3-yl}amino)benzamide], for which the ΔTm at 10 µM on CAMKK1 was 3.7 °C; on CDK2 it was 2.7 °C; on CLK1, 0.9 °C; on GSG2A, 1.3 °C; at MAPK14B it was 0.6 °C; on PKMYT1A it was 3 °C. In addition, the ΔTm at 10 µM came to 1.3 °C at RPS6KA1A and 1.8 °C at SRPK1A.
